Experimental findings from US8895695B2, “Template-fixed beta-hairpin peptidomimetics with CXCR4 antagonizing activity” (priority 2003, dated 2014) are described below.

The test system of series [1] is 'CCR5' cells / Hut/4-3 cells co-cultivation. The series is described as follows: FIGS-Assay. It counts as cell-based. The note with it: 200 nM peptide, 48 hours of co-cultivation. On the procedure:
The assay was performed according to ref. 5, below. Stock dilutions of the peptides (10 mM) were prepared by dissolving in 10 mM Tris-HCl at room temperature. Stock solutions were kept at +4° C., light protected. Working dilutions were prepared extemporaneously by serial dilution in Phosphate Buffered Saline (PBS) and added in a final volume of 10 μl directly to the cell cultures. After 48 hours of co-cultivation the cultures were rinsed with PBS and then exposed to glutaraldehyde/formaldehyde (0.2%/2%) in PBS for five minutes. For photometric quantification the fixed cultures were subsequently incubated with ortho-nitro-phenyl-galactopyranoside (ONPG) as a β-galactosidase substrate, which was enzymatically converted into the chromophore ortho-nitrophenol (ONP). The read out is directly obtained by measuring optical density of wells at 405 nm in an iEMS 96well-plate reader.
(§1) All fine chemicals came from Merck (Darmstadt, Germany).

A short description of series [2]: Cytotoxicity assay (MTT reduction), HELA cells.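 Note: MTT reduction read as absorbance at 595 nm, blank-corrected and expressed as percent growth relative to the time-zero cell reading, triplicate wells per concentration.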 The note with it: human, HELA cells (Acc57).
Protocol: Each peptide concentration was assayed in triplicate. […] Wells were then washed once with PBS and subsequently 100 μl MTT reagent (0.5 mg/mL in medium RPMI1640 and, respectively, DMEM) was added to the wells. This was incubated at 37° C. for 2 hours and subsequently the medium was aspirated and 100 μl isopropanol was added to each well. […] For each concentration averages were calculated from triplicates. The percentage of growth was calculated as follows: (OD595peptide-OD595Tz-OD595Empty well)/(OD595Tz-OD595Empty well)×100% and was plotted for each peptide concentration.
‘CCR5’ cells were cultured in DMEM medium with 4500 mg/ml glucose, 10% fetal bovine serum (FBS), supplemented with 50 U/ml Penicillin and 50 μg/ml Streptomycin (Pen/Strept.). Hut/4-3 cells were maintained in RPMI medium, 10% FBS, supplemented with Pen/Strept. and 10 mM HEPES. HELA cells and CCRF-CEM cells were maintained in RPMI1640 plus 5% FBS, Pen/Strept and 2 mM L-Glutamine. Cos-7 cells were grown in DMEM medium with 4500 mg/ml glucose supplemented with 10% FCS, Pen/Strept. and 2 mM L-Glutamine. All cell lines were grown at 37° C. at 5% CO2.
Series [3] deals with human red blood cells (hRBC). Nature of the series: Hemolysis. In kind it is cell-based. In short, it runs like this:
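Percent lysis taken as OD540 of peptide-treated sample over OD540 of the water/0.1% Triton X-100 full-lysis control, with PBS giving 0%. Peptides at 100 μM exposed to PBS-washed human RBCs (20% v/v) for 1 hour at 37° C. before centrifugation and 20-fold dilution of supernatant.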

Another series has as its system CCRF-CEM cells. The series is described as follows: Chemotactic assay (cell migration assay). The note with it: 1 nM SDF-1, 4 hours. It counts as cell-based. On the procedure:
as §1
2.7. Chemotactic Assay (Cell Migration Assay)
The chemotactic response of CCRF-CEM cells to a gradient of stromal cell-derived factor 1α (SDF-1) was measured using disposable assay plates from Neuroprobe (5μ pore size) (Gaithersburg, Md.), according to the manufacturer's directions and references therein [especially ref. 8, below]. Briefly, one 175 cm^2 flask was washed once with Dubecco's phosphate buffered saline (DPBS), and trypsinized for 10 minutes or until cells had lifted. The trypsin was neutralized by the addition of fresh medium containing serum and the cells were pelleted, washed once in DPBS, and resuspended at 1-0.5×10^7 cells/ml in RPMI+0.5% bovine serum albumin (BSA). 45 μl of cell suspension were mixed with 5 μl of 10-fold concentrated PEM peptide diluted in the same assay medium. […] The optical absorbance at 595 nm (ABS595) was read using a Tecan Genios plate reader with Magellan software. The number of cells migrated was determined by comparing ABS595 values against a standard curve generated with a known number of cells in the assay plate and were plotted against SDF-1 concentration to obtain a sigmoidal curve and to determine the IC50 values. The values for IC50 were determined using the Trendline function in Microsoft Excel by fitting a logarithmic curve to the averaged datapoints.

Another series concerns the target CXCR4 (Homo sapiens, UniProt P61073). The series is described as follows: Ca2+-assay method 1: CXCR4-antagonizing activity. It counts as cell-based. Details: expressed in transfected cells. The note with it: method 1 (Ex. 1-53), CXCR4 transfected pre-B cells, Fura-2; read-out: IC50 (nM) Ca^2+ assay. On the procedure:
2.2. Ca^2+-Assay: CXCR4-Antagonizing Activity of the Peptides.
The cells were washed free from Fura-2-AM with a platelet centrifuge and resuspended in 800 μl MSB containing 5 mM D-Glucose. The peptides to be administered were diluted to a 100 fold end concentration in MSB/0.2% PPL, and 8 μl were injected. […] Measurements were done under continuous stirring at 37° C. The signal intension was calibrated with 3 mM CaCl2/[…] lonomycin (maximal fura-2-acetoxymethylester saturation) and 10 μM MnCl2 (minimal Fura-2-acetoxymethylester saturation) and [Ca^2+]i-changes are presented in % fora-2-acetoxymethylester saturation. The rate of [Ca^2+]i-changes was calculated on the basis of the initial [Ca^2+]i-changes and plotted in dependence of chemokine concentration to obtain a sigmoidal curve and to determine the IC50 values.
Osmolarity: 310 mOsm adjusted with NaOH or HCl, adjusted with H2O or PBS.
MSB plus: 5 mM D-glucose in MSB (50 mg/50 mL).
Fura 2-acetoxymethylester: 1 mM stock solution in dimethylsulfoxide.

Bridge positions count the residues as written; N and C are the ends. Square brackets hold non-standard residues; d marks the D form. Peptide text beside a SMILES is read from it. 2Nal = N[C@@H](Cc1ccc2ccccc2c1)C(=O)O; Cit = NC(=O)NCCC[C@H](N)C(=O)O

As a reminder, the CC50 is the concentration at which the toxic effect on the cells reaches its halfway point. Read a low CC50 as harm at low concentration. The IC50 is the concentration at which inhibition is half-maximal.

Chain of CXCR4 (P61073 whole entry): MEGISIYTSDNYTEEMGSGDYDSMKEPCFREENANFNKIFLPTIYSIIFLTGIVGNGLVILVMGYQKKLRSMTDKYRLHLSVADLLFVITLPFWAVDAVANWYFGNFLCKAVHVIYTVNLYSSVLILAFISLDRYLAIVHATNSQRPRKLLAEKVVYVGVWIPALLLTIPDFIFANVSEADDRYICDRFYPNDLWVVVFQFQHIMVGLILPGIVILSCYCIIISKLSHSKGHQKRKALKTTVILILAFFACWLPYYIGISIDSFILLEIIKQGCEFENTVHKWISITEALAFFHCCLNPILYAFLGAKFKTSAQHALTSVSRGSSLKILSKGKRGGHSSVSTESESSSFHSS

As to `N=C(N)NCCC[C@@H]1NC(=O)CNC(=O)CNC(=O)[C@H](CCCNC(=N)N)NC(=O)[C@@H]2CSSC[C@H](NC(=O)[C@H](Cc3ccc4ccccc4c3)NC(=O)[C@H](CCCNC(=N)N)NC1=O)C(=O)N[C@@H](Cc1ccc(O)cc1)C(=O)N[C@@H](CCCNC(N)=O)C(=O)N[C@@H](CCCCN)C(=O)N1CCC[C@@H]1C(=O)N1CCC[C@H]1C(=O)N[C@@H](Cc1ccc(O)cc1)C(=O)N[C@@H](CCCNC(=N)N)C(=O)N[C@@H](CCCNC(N)=O)C(=O)N2` [Ex. 52] (cyclo(YR[Cit]CRGGRR[2Nal]CY[Cit]K[dP]P); disulfide 4-11), the “FIGS % inhibition at 200 nM” value in series [1] was 95.4%. In addition, in series [2], it took 99000 nM to reach half-maximal cytotoxicity (CC50 at 48 h). Moreover, the Hemolysis at 100 μM in series [3] worked out at 0%. Also, the IC50 stood at 2.75 µM in the series on CCRF-CEM cells and 3.1 nM on CXCR4.
